Reference: patent US5652249A, “Method of treating depression” (Nippon Shinyaku Co., Inc., priority 1993, dated 1997)

Columns and labels:
[1] = test system: rats; test: Rat forced swimming test (immobility time); type: in vivo, rat (male Wistar); conditions: for Immobility Time (mean ± S.E.): N=10; for Effect on the immobility time in the forced swimming test (in words): Dunnett's test vs control
Protocol: (§1) Particularly the forced swimming test has been used most widely in the evaluation of antidepressant drugs in animals. Reportedly the immobility time-shortening activity of an antidepressant drug as assayed by this test is highly correlated with the clinical efficacy of the drug in man (F. Borsini and A. Meli, 1988).
Five-week old male Wistar rats were used. A cylindrical vessel measuring 18 cm in diameter and 40 cm deep was filled with 25° C. of water to the level of 17 cm from the bottom, and the rat was forced to swim in the water for 15 minutes (Session I). After 24 hours, the rat was put again in the vessel for 5 minutes and the duration of time the rat remained motionless without swimming was determined (Session II). The drug was orally administered twice, viz. at completion of Session I and 1 hr before the start of Session II. The drug was suspended in 0.5% methylcellulose (MC) solution for the administration. The control group was orally given the same volume of 0.5% MC solution. Compound No. 2 was used as the test drug. As reference drugs, desipramine, which is a representative antidepressant, and aniracetam and idebenone, both of which are enhancers of cerebral circulation and metabolism, were used. The statistical significance of between groups differences was analyzed by Dunnett's test.

[2] = test system: rats; test: Rat learned helplessness test (escape failures); type: in vivo; conditions: for No. of escape failures (mean ± S.E.): oral once daily for 10 days, ECS group, 40 avoidance tasks, N=10
From the text: as §1
The rat was orally administered with the drug once daily for 10 consecutive days. On days 8-10 of administration, the rat was placed in a shuttle box in which it received 100 unescapable electroconvulsive shocks (ECS) daily. The day after the last ECS session, the active avoidance task was given 40 times and the number of failures to escape was recorded. Compound No. 2 was used as the test drug. As a reference drug, desipramine was used.

[3] = Acute toxicity testing, oral, mice; set-up: species or system mouse (male ddy-strain); conditions: mouse, in vivo, male ddy mice, 2 weeks observation, probit method
Protocol: (1) Groups of five male ddy-strain mice aged 6-7 weeks were used. The animals were fasted for 16-18 hours (from the previous day) and then orally given the test compound. The LD50 values were calculated by the probit method based on the mortality observed within the succeeding period of 2 weeks.

[4] = Acute toxicity testing, oral, rats; set-up: species or system rat (male SD-strain); conditions: rat, in vivo, male SD rats, two-week observation, probit method
Protocol: (2) Groups of five male SD-strain rats weighing 280-360 g were used. The animals were fasted for 16-18 hours (from the previous day) and then orally given the test compound. The LD50 values were calculated by the probit method based on the mortality observed within the succeeding two-week period.

[5] = 1 mg/kg, oral twice, *p < 0.01 vs control
[6] = 3 mg/kg, oral twice, *p < 0.01 vs control
[7] = 10 mg/kg, oral twice, *p < 0.01 vs control
[8] = 30 mg/kg, oral twice, *p < 0.01 vs control
[9] = 100 mg/kg, oral twice, *p < 0.01 vs control

O=C1CC[C@H](C(=O)N2CCCCC2)N1 [Compound No. 2, D-(+)-1-(2-Pyrrolidone-5-carbonyl)piperidine]
Immobility Time (mean ± S.E.) ([1]; 0.3 mg/kg, oral twice (after Session I and 1 hr before Session II)): 153.0 ± 17.2 s | Immobility Time (mean ± S.E.) [1, 5]: 119.4 ± 11.0 s | Immobility Time (mean ± S.E.) [1, 6]: 82.2 ± 18.1 s | Immobility Time (mean ± S.E.) [1, 7]: 93.7 ± 13.4 s | Immobility Time (mean ± S.E.) [1, 8]: 61.3 ± 8.5 s | Immobility Time (mean ± S.E.) [1, 9]: 53.8 ± 12.6 s | No. of escape failures (mean ± S.E.) ([2]; 1 mg/kg): 20.20 ± 4.89 | No. of escape failures (mean ± S.E.) ([2]; 3 mg/kg): 13.60 ± 4.15 | No. of escape failures (mean ± S.E.) ([2]; 10 mg/kg, *p < 0.01): 0.90 ± 0.69 | LD50 at 336 h [3]: 4160 mg/kg | LD50 at 336 h [4]: ≥ 5000 mg/kg

COc1ccc(C(=O)N2CCCC2=O)cc1 [aniracetam]
Immobility Time (mean ± S.E.) [1, 7]: 168.9 ± 18.0 s | Immobility Time (mean ± S.E.) [1, 8]: 162.6 ± 14.5 s | Immobility Time (mean ± S.E.) [1, 9]: 175.6 ± 13.8 s | Effect on the immobility time in the forced swimming test (in words) ([1]; oral twice): did not influence the immobility time

CNCCCN1c2ccccc2CCc2ccccc21 [desipramine]
Immobility Time (mean ± S.E.) [1, 5]: 134.2 ± 20.8 s | Immobility Time (mean ± S.E.) [1, 6]: 83.2 ± 16.1 s | Immobility Time (mean ± S.E.) [1, 7]: 54.7 ± 15.8 s | Immobility Time (mean ± S.E.) [1, 8]: 34.8 ± 12.2 s | Immobility Time (mean ± S.E.) ([1]; 50 mg/kg, oral twice, *p < 0.01 vs control): 41.8 ± 9.8 s | Effect on the immobility time in the forced swimming test (in words) ([1]; oral twice): shortened the immobility time significantly and dose dependently at 3 mg/kg and higher doses | No. of escape failures (mean ± S.E.) ([2]; 1 mg/kg): 32.10 ± 2.66 | No. of escape failures (mean ± S.E.) ([2]; 3 mg/kg): 19.00 ± 5.65 | Effect on failure to escape in the learned helplessness test (in words) ([2]; 10 mg/kg, oral): significant inhibitory effects on this failure to escape at 10 mg/kg | No. of escape failures (mean ± S.E.) ([2]; 10 mg/kg, *p < 0.01): 0.60 ± 0.27

COC1=C(OC)C(=O)C(CCCCCCCCCCO)=C(C)C1=O [idebenone]
Immobility Time (mean ± S.E.) [1, 8]: 178.2 ± 17.6 s | Immobility Time (mean ± S.E.) [1, 9]: 154.4 ± 17.4 s | Immobility Time (mean ± S.E.) ([1]; 300 mg/kg, oral twice): 180.9 ± 13.9 s | Effect on the immobility time in the forced swimming test (in words) ([1]; oral twice): did not influence the immobility time
